Tests used:
Factor VIII (FVIII) [1] = experiment: FVIII Antigen by ELISA (FVIII-AG ELISA kit) in patient plasma; format: in vivo, human
Method: (§1) Blood samples were collected by venipuncture in 3.2% sodium citrate anticoagulant. Platelet poor plasma was separated by centrifugation per clinical protocols, snap frozen, and stored at −80 C until tested. FVIII Antigen was measured by ELISA (FVIII-AG ELISA kit, Affinity Biologicals) per the manufacturer's instructions. FVIII Activity was measured by manual one-stage assay per the clinical protocol of the Bloodworks Northwest Hemostasis Reference Laboratory. The Koate DVI (Kedrion) coefficient (in vivo) was ascertained by measuring FVIII Antigen and FVIII Activity samples from patients undergoing clinically-indicated Koate DVI kinetic studies and calculating the Activity:Antigen ratio. Pooled normal plasma (Precision BioLogic), normal reference plasmas (Precision BioLogic, Siemens), abnormal reference plasma (Siemens), samples from healthy blood donors, and FVIII-deficient plasma (Affinity Biologicals, Siemens) were used in assays as standards and controls.

Factor VIII (FVIII) [2] = experiment: FVIII Activity by manual one-stage assay in patient plasma; format: in vivo, human; conditions: FVIII Case #3, 45 min after Stimate; baseline 18.9%
Method: as §1

Factor IX (FIX) [3] = experiment: FIX Antigen by FIX-EIA paired antibody ELISA in patient plasma; format: in vivo, human; conditions: FIX Case #1, patient with severe Hemophilia B, at presentation, 6 days after Benefix
Method: (§2) Blood samples were collected by venipuncture in 3.2% sodium citrate anticoagulant. Platelet poor plasma was separated by centrifugation per clinical protocols, snap frozen, and stored at −80 C until tested. FIX Antigen was measured by FIX-EIA paired antibody ELISA (Affinity Biologicals). FIX-deficient plasma (Affinity Biologicals) was used as a negative control and diluent. FIX Activity was performed via manual one-stage assay per the clinical laboratory protocols of the Bloodworks Northwest Hemostasis Reference Laboratory. FIX-deficient plasma (Siemens) was used as a diluent and negative control. The Benefix (Wyeth Pharmaceuticals) coefficient was ascertained by serial dilution of Benefix into FIX-deficient plasma (Affinity Biologicals), performance of both the FIX Antigen and Activity assays, and calculating the Activity:Antigen ratio.

Factor IX (FIX) [4] = experiment: FIX coefficient, Activity:Antigen ratio (dilution into FIX-deficient plasma / normal plasma standards); format: biochemical, human
Method: as §2
The patient then received a dose of Alprolix followed by a blood draw 24 hours later. The Alprolix drug coefficient was not able to be experimentally determined due to limited drug availability. In lieu of this, we used normal plasma standards and experimentally determined the coefficient of normal human FIX to be 1.1. We then assumed the drug coefficient for Alprolix to be similar to naturally occurring FIX, and determined the patient's FIX level by: FIX Activity=(Base FIX Activity)+[(Measured FIX Antigen−Base FIX Antigen)×(Patient's FIX Coefficient)].

Factor IX (FIX) [5] = experiment: FIX Activity by manual one-stage assay in patient plasma; format: in vivo, human; conditions: FIX Case #1, at presentation, 6 days after Benefix
Method: as §2

Factor XI (FXI) = experiment: Factor XI Coefficient, serial dilution of normal reference plasma into FXI-deficient plasma; format: biochemical, human; conditions: plasma pooled from healthy subjects
Method: Commercially-available normal and abnormal (FVII- and FXI-deficient) plasmas (Siemens) were obtained to be tested as experimental samples. Factor VII and Factor XI Coefficients were determined by serial dilution of normal reference plasma (Precision BioLogic) into FVII-deficient and FXI-deficient plasmas (Affinity Biologicals).
We tested two plasmas, one with normal levels of FXI, and one deficient in FXI (approximately 1/3 FXI activity). We experimentally determined using plasma pooled from healthy subjects that the coefficient of natural FXI is 0.82. The FXI Activity was then determined by: FXI Activity=[(Measured FXI Antigen)×(FXI Coefficient)].

In the case of NC(=O)CC[C@@H]1NC(=O)[C@H](Cc2ccccc2)NC(=O)[C@H](Cc2ccc(O)cc2)NC(=O)CCSSC[C@@H](C(=O)N2CCC[C@H]2C(=O)N[C@H](CCCN=C(N)N)C(=O)NCC(N)=O)NC(=O)[C@H](CC(N)=O)NC1=O [Stimate], the “FVIII Activity (Calculated)” value (Factor VIII (FVIII) [1]; FVIII Case #3, 45 min after Stimate, calculated with patient's FVIII coefficient 1.97, baseline 18.9%) is reported as 48.92%, the “Measured FVIII Antigen (FVIII:Ag) (after Stimate)” value (Factor VIII (FVIII) [1]; FVIII Case #3, patient with mild Hemophilia A, 45 min after Stimate, baseline 9.59 IU/dL) is reported as 24.83 IU/dL and the “FVIII Activity (Measured)” value (Factor VIII (FVIII) [2]) is reported as 50.76%.

With “Benefix: a different FIX replacement therapy (Wyeth Pharmaceuticals / Pfizer)” the “Measured FIX Antigen (FIX:Ag)” value (Factor IX (FIX) [3]) was 8.0 IU/dL, the “drug coefficient (FIX Activity:Antigen ratio)” value (Factor IX (FIX) [4]; serial dilution of Benefix into FIX-deficient plasma) was 2.1 and the “FIX Activity (Measured)” value (Factor IX (FIX) [5]) was 4%.

For “natural FXI: FXI of plasma pooled from healthy subjects”, the “coefficient of natural FXI” value (Factor XI (FXI)) was 0.82.

“normal human FIX: naturally occurring FIX in normal plasma standards” was tested, and the “coefficient of normal human FIX” value (Factor IX (FIX) [4]; normal plasma standards) was 1.1.
